≈ marks a conversion by molar mass, not a printed value. Where “and” joins values, the source holds several entries; their conditions need not be identical. Equal values may be shown once.
Experiments:
Experiment in all cases: ≥ marks a high value that may be exact or a test limit, other limits are often not marked, values filed in µg/mL are converted to µM
[1] = system: Staphylococcus epidermidis ATCC 35984
[2] = system: Staphylococcus aureus USA 300
[3] = system: Enterococcus faecalis ATCC 29212
Escherichia coli D21 = system: Escherichia coli D21
[4] = system: Candida albicans ATCC 10231
Saccharomyces cerevisiae = system: Saccharomyces cerevisiae
[5] = system: Streptococcus pyogenes ATCC 21547
[6] = system: Pseudomonas aeruginosa ATCC 27853
Acinetobacter junii RT-4 = system: Acinetobacter junii RT-4
[7] = system: Staphylococcus aureus Cowan 1
[8] = system: Staphylococcus epidermidis ATCC 12228
Staphylococcus capitis 1 = system: Staphylococcus capitis 1
[9] = system: Staphylococcus aureus ATCC 25923
[10] = system: Acinetobacter baumannii ATCC 19606
[11] = system: Escherichia coli ATCC 25922
[12] = system: Yersinia pseudotuberculosis YPIII
Bacillus megaterium Bm11 = system: Bacillus megaterium Bm11
[13] = system: Schizosaccharomyces pombe
[14] = system: Pseudomonas aeruginosa ATCC 15692
[15] = system: Pseudomonas syringae pv. tabaci 1918NCPPB
[16] = system: Bacillus megaterium CGMCC 1.0459
[17] = system: Micrococcus luteus CGMCC 1.0290
[18] = system: Staphylococcus aureus ATCC 25929
[19] = system: Staphylococcus epidermidis
Pseudomonas aeruginosa = system: Pseudomonas aeruginosa
Acinetobacter baumannii = system: Acinetobacter baumannii
[20] = system: Staphylococcus aureus P1369
[21] = system: Staphylococcus epidermidis P1111
Escherichia coli AB94012 = system: Escherichia coli AB94012
[22] = system: Staphylococcus aureus AB94004
[23] = system: Escherichia coli ATCC 35218
Escherichia coli = system: Escherichia coli
[24] = system: Pseudomonas aeruginosa A093115
[25] = system: Pseudomonas aeruginosa AB93066
Staphylococcus aureus = system: Staphylococcus aureus
[26] = system: Staphylococcus aureus NBRC 100910
[27] = system: Pseudomonas aeruginosa A093085
[28] = system: Pseudomonas aeruginosa A093052
[29] = system: Pseudomonas aeruginosa A092994
Klebsiella pneumoniae = system: Klebsiella pneumoniae
[30] = system: Staphylococcus aureus P1381
Enterococcus faecium = system: Enterococcus faecium
[31] = system: Bacillus subtilis AB91021
[32] = system: Staphylococcus aureus P1374
[33] = system: Bacillus thuringiensis AB92037
Enterococcus faecalis = system: Enterococcus faecalis
[34] = system: Staphylococcus aureus ATCC 29213
[35] = system: Pseudomonas aeruginosa A093056
[36] = system: Staphylococcus aureus P1383
[37] = system: Micrococcus luteus AB93113
[38] = system: Klebsiella pneumoniae ATCC 700603
[39] = system: Staphylococcus epidermidis P1389

In the case of CC[C@H](C)[C@H](NC(=O)[C@H](C)NC(=O)[C@H](CCCCN)NC(=O)[C@@H](NC(=O)[C@@H](NC(=O)[C@H](CCCCN)NC(=O)[C@@H](NC(=O)[C@@H](NC(=O)[C@@H](NC(=O)CNC(=O)[C@@H](N)C(C)C)[C@@H](C)O)[C@@H](C)CC)[C@@H](C)CC)[C@@H](C)CC)[C@@H](C)CC)C(=O)N[C@H](C(=O)N[C@@H](CC(=O)O)C(=O)N[C@H](C(=O)N[C@@H](Cc1ccccc1)C(=O)N[C@@H](C)C(=O)N[C@@H](CCCCN)C(=O)O)[C@@H](C)CC)[C@@H](C)CC [VGTIIKIIKAIIDIFAK], the MIC [1] is reported as no less than 64 µM and the MIC [2] is reported as no less than 64 µM.
CC[C@H](C)[C@H](NC(=O)[C@H](CCCCN)NC(=O)CNC(=O)[C@H](CC(C)C)NC(=O)[C@H](Cc1ccccc1)NC(=O)[C@H](CCCCN)NC(=O)[C@H](CO)NC(=O)[C@H](Cc1ccccc1)NC(=O)[C@H](Cc1c[nH]c2ccccc12)NC(=O)[C@H](CCC(N)=O)NC(=O)[C@@H](NC(=O)[C@@H](N)Cc1ccccc1)C(C)C)C(=O)N[C@@H](CC(C)C)C(N)=O [FVQWFSKFLGKIL] gave an MIC [3] of 12 µM (≈ 19.3 µg/mL), an MIC (Escherichia coli D21) of 24 µM (≈ 38.7 µg/mL) and an MIC [4] of 12 µM (≈ 19.3 µg/mL). The MIC (Saccharomyces cerevisiae) was 6 µM (≈ 9.67 µg/mL), the MIC [5] was 6 µM (≈ 9.67 µg/mL) and the MIC [6] was 48 µM (≈ 77.4 µg/mL). It also gave an MIC (Acinetobacter junii RT-4) of 6 µM (≈ 9.67 µg/mL), an MIC [7] of 12 µM (≈ 19.3 µg/mL) and an MIC [8] of 6 µM (≈ 9.67 µg/mL). For the same compound, the MIC (Staphylococcus capitis 1) was 6 µM (≈ 9.67 µg/mL), the MIC [9] was 6 µM (≈ 9.67 µg/mL) and the MIC [10] was 6 µM (≈ 9.67 µg/mL). The MIC [11] was 12 µM (≈ 19.3 µg/mL), the MIC [12] was 6 µM (≈ 9.67 µg/mL) and the MIC (Bacillus megaterium Bm11) was 3 µM (≈ 4.84 µg/mL). For the same compound, the MIC [13] was 6 µM (≈ 9.67 µg/mL), the MIC [14] was 24 µM (≈ 38.7 µg/mL) and the MIC [15] was 24 µM (≈ 38.7 µg/mL).
CC(C)C[C@@H]1NC(=O)[C@@H]2CSSC[C@@H](C(=O)N[C@@H](CCCN=C(N)N)C(=O)O)NC(=O)[C@H](C(C)C)NC(=O)[C@@H]3CSSC[C@H](NC(=O)[C@H](C)NC(=O)[C@H](CO)NC(=O)[C@H](Cc4cnc[nH]4)NC(=O)[C@H](CC(N)=O)NC(=O)[C@@H]4CCCN4C(=O)[C@H](CO)NC(=O)[C@H](C(C)C)NC(=O)[C@H](Cc4c[nH]c5ccccc45)NC(=O)[C@H](CCCCN)NC(=O)[C@H](CO)NC(=O)[C@H](CCC(N)=O)NC(=O)[C@H](Cc4ccccc4)NC(=O)[C@H](CO)NC(=O)[C@H](CC(C)C)NC(=O)[C@H](C(C)C)NC(=O)[C@H](CC(=O)O)NC(=O)[C@@H](NC(=O)[C@H](CO)NC(=O)[C@@H](N)Cc4ccccc4)CSSC[C@H](NC(=O)[C@H](CCCCN)NC(=O)CNC(=O)CNC(=O)[C@H](CCCCN)NC(=O)[C@H](CCCN=C(N)N)NC(=O)[C@H](CCCN=C(N)N)NC(=O)[C@H](CCC(N)=O)NC(=O)[C@H](C)NC1=O)C(=O)N[C@@H](CCCCN)C(=O)N[C@@H](CC(N)=O)C(=O)NCC(=O)N[C@@H](CC(=O)O)C(=O)N3)C(=O)N[C@@H](C)C(=O)N[C@@H](C(C)C)C(=O)N[C@@H](CCCN=C(N)N)C(=O)N2 [FSCDVLSFQSKWVSPNHSACAVRCLAQRRKGGKCKNGDCVCR] showed an MIC [16] of 1.5 µM (≈ 6.96 µg/mL) and an MIC [17] of 4.54 µM (≈ 21.1 µg/mL).
Compound CC(C)C[C@H](NC(=O)[C@H](CC(C)C)NC(=O)[C@@H](NC(=O)[C@@H]1CCCN1C(=O)[C@H](CCCCN)NC(=O)[C@@H](N)[C@@H](C)O)[C@@H](C)O)C(=O)NCC(=O)N[C@@H](CC(C)C)C(=O)N1CCC[C@H]1C(=O)N[C@@H](CC(C)C)C(=O)NCC(=O)N[C@@H](C)C(=O)NCC(=O)N1CCC[C@H]1C(=O)N[C@@H](C)C(=O)N[C@@H](C)C(=O)NCC(=O)N1CCC[C@H]1C(=O)NCC(=O)N[C@@H](CCCCN)C(=O)N[C@@H](CCCN=C(N)N)C(N)=O [TKPTLLGLPLGAGPAAGPGKR] has an MIC [18] of 8 µM (≈ 15.8 µg/mL) and an MIC [11] of 16 µM (≈ 31.5 µg/mL).
Compound CC[C@H](C)[C@H](NC(=O)[C@H](CCCN=C(N)N)NC(=O)[C@H](CCCCN)NC(=O)[C@@H](NC(=O)[C@@H](N)Cc1ccccc1)[C@@H](C)CC)C(=O)N[C@@H](C)C(=O)N[C@@H](CCCN=C(N)N)C(=O)N[C@@H](CC(C)C)C(=O)N[C@@H](CC(C)C)C(=O)N[C@@H](CCCN=C(N)N)C(=O)N[C@@H](CCCCN)C(=O)N[C@H](C(=O)N[C@@H](Cc1ccccc1)C(N)=O)[C@@H](C)CC [FIKRIARLLRKIF] has an MIC [19] of 2.11 µM (≈ 3.53 µg/mL), an MIC (Pseudomonas aeruginosa) of 8.45 µM (≈ 14.1 µg/mL) and an MIC (Acinetobacter baumannii) of 4.22 µM (≈ 7.07 µg/mL). It also gave an MIC [3] of 2.99 µM (≈ 5 µg/mL), an MIC [20] of 1.87 µM (≈ 3.13 µg/mL) and an MIC [21] of 1.87 µM (≈ 3.13 µg/mL). For the same compound, the MIC (Escherichia coli AB94012) was 3.73 µM (≈ 6.25 µg/mL), the MIC [22] was 1.87 µM (≈ 3.13 µg/mL) and the MIC [23] was 5.97 µM (≈ 9.99 µg/mL). It also gave an MIC (Escherichia coli) of 8.45 µM (≈ 14.1 µg/mL), an MIC [24] of no less than 59.7 µM and an MIC [6] of 5.97 µM (≈ 9.99 µg/mL). For the same compound, the MIC [25] was 14.9 µM (≈ 25 µg/mL), the MIC (Staphylococcus aureus) was 2.11 µM (≈ 3.53 µg/mL) and the MIC [26] was 2.39 µM (≈ 4 µg/mL). The MIC [27] was 29.9 µM (≈ 50 µg/mL), the MIC [28] was no less than 59.7 µM and the MIC [29] was 29.9 µM (≈ 50 µg/mL). The MIC (Klebsiella pneumoniae) was 5.97 µM (≈ 9.99 µg/mL), the MIC [30] was 3.73 µM (≈ 6.25 µg/mL) and the MIC (Enterococcus faecium) was 2.99 µM (≈ 5 µg/mL). For the same compound, the MIC [31] was 3.73 µM (≈ 6.25 µg/mL), the MIC [9] was 1.87 µM (≈ 3.13 µg/mL) and the MIC [32] was 1.87 µM (≈ 3.13 µg/mL). The MIC [33] was 3.73 µM (≈ 6.25 µg/mL), the MIC (Enterococcus faecalis) was 5.97 µM (≈ 9.99 µg/mL) and the MIC [10] was 2.99 µM (≈ 5 µg/mL). For the same compound, the MIC [11] was 14.9 µM and 5.97 µM, the MIC [34] was 2.99 µM (≈ 5 µg/mL) and the MIC [35] was 29.9 µM (≈ 50 µg/mL). The MIC [36] was 3.73 µM (≈ 6.25 µg/mL), the MIC [37] was 3.73 µM (≈ 6.25 µg/mL) and the MIC [38] was 5.97 µM (≈ 9.99 µg/mL). For the same compound, the MIC [39] was 3.73 µM (≈ 6.25 µg/mL).
